Experimental data reported in the supplement of paper PMC10307832.

Experiments:
Test in all cases: relative viability (nuclei count vs DMSO), 5 days (fraction); higher = more cells survive
NCI-H596 = test system: NCI-H596
Procedure, shortened: (§1)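 Lung cancer cell lines, seeded in 1536-well plates, were treated the following day by pin tool with a single drug or with five library-drug doses (not always all listed) in √10 steps on top of a fixed anchor-drug dose. Cells were fixed and nuclei stained in one step after 5 days, and nuclei were counted. Relative viability is the nuclei count for treated wells divided by that for vehicle wells, reported as medians of duplicate plates.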

NCI-H520 = test system: NCI-H520
Procedure, shortened: as §1

NCI-H650 = test system: NCI-H650
Procedure, shortened: as §1

A-427 = test system: A-427
Procedure, shortened: as §1

H3255 = test system: H3255
Procedure, shortened: as §1

NCI-H2087 = test system: NCI-H2087
Procedure, shortened: as §1

NCI-H1650 = test system: NCI-H1650
Procedure, shortened: as §1

CAL-12T = test system: CAL-12T
Procedure, shortened: as §1

NCI-H2023 = test system: NCI-H2023
Procedure, shortened: as §1

LCLC-97TM1 = test system: LCLC-97TM1
Procedure, shortened: as §1

BEN = test system: BEN
Procedure, shortened: as §1

NCI-H1915 = test system: NCI-H1915
Procedure, shortened: as §1

201T = test system: 201T
Procedure, shortened: as §1

NCI-H441 = test system: NCI-H441
Procedure, shortened: as §1

LC-2-ad = test system: LC-2-ad
Procedure, shortened: as §1

NCI-H1944 = test system: NCI-H1944
Procedure, shortened: as §1

NCI-H460 = test system: NCI-H460
Procedure, shortened: as §1

NCI-H1651 = test system: NCI-H1651
Procedure, shortened: as §1

PC-3 [JPC-3] = test system: PC-3 [JPC-3]
Procedure, shortened: as §1

NCI-H661 = test system: NCI-H661
Procedure, shortened: as §1

NCI-H727 = test system: NCI-H727
Procedure, shortened: as §1

Work on `Nc1ccn([C@@H]2O[C@H](CO)[C@@H](O)[C@@H]2O)c(=O)n1` [Cytarabine] + CC(=O)Nc1cccc(-n2c(=O)n(C3CC3)c(=O)c3c(Nc4ccc(I)cc4F)n(C)c(=O)c(C)c32)c1 [Trametinib] (partner 0.02 µM) yielded a relative viability (NCI-H596; first compound 0.005 µM) of 0.812, a relative viability (NCI-H596; first compound 0.01581 µM) of 0.759 and a relative viability (NCI-H596; first compound 0.05 µM) of 0.69. The relative viability (NCI-H596; first compound 0.1581 µM) was 0.5, the relative viability (NCI-H596; first compound 0.5 µM) was 0.499 and the relative viability (NCI-H520; first compound 0.005 µM) was 0.696. For the same molecule, the relative viability (NCI-H520; first compound 0.01581 µM) was 0.684, the relative viability (NCI-H520; first compound 0.05 µM) was 0.579 and the relative viability (NCI-H520; first compound 0.1581 µM) was 0.477. It also gave a relative viability (NCI-H520; first compound 0.5 µM) of 0.484, a relative viability (NCI-H650; first compound 0.005 µM) of 0.793 and a relative viability (NCI-H650; first compound 0.01581 µM) of 0.694. For the same molecule, the relative viability (NCI-H650; first compound 0.05 µM) was 0.47, the relative viability (NCI-H650; first compound 0.1581 µM) was 0.186 and the relative viability (NCI-H650; first compound 0.5 µM) was 0.196. It also gave a relative viability (A-427; first compound 0.005 µM) of 0.714, a relative viability (A-427; first compound 0.01581 µM) of 0.616 and a relative viability (A-427; first compound 0.05 µM) of 0.381. It also gave a relative viability (A-427; first compound 0.1581 µM) of 0.273, a relative viability (A-427; first compound 0.5 µM) of 0.225 and a relative viability (H3255; first compound 0.005 µM) of 0.637. It also gave a relative viability (H3255; first compound 0.01581 µM) of 0.652, a relative viability (H3255; first compound 0.05 µM) of 0.639 and a relative viability (H3255; first compound 0.1581 µM) of 0.559. It also gave a relative viability (H3255; first compound 0.5 µM) of 0.533, a relative viability (NCI-H2087; first compound 0.005 µM) of 0.187 and a relative viability (NCI-H2087; first compound 0.01581 µM) of 0.221. The relative viability (NCI-H2087; first compound 0.05 µM) was 0.187, the relative viability (NCI-H2087; first compound 0.1581 µM) was 0.139 and the relative viability (NCI-H2087; first compound 0.5 µM) was 0.126. It also gave a relative viability (NCI-H1650; first compound 0.005 µM) of 0.446, a relative viability (NCI-H1650; first compound 0.01581 µM) of 0.419 and a relative viability (NCI-H1650; first compound 0.05 µM) of 0.452. For the same molecule, the relative viability (NCI-H1650; first compound 0.1581 µM) was 0.24, the relative viability (NCI-H1650; first compound 0.5 µM) was 0.158 and the relative viability (CAL-12T; first compound 0.005 µM) was 0.411. It also gave a relative viability (CAL-12T; first compound 0.01581 µM) of 0.318, a relative viability (CAL-12T; first compound 0.05 µM) of 0.326 and a relative viability (CAL-12T; first compound 0.1581 µM) of 0.22. It also gave a relative viability (CAL-12T; first compound 0.5 µM) of 0.22, a relative viability (NCI-H2023; first compound 0.005 µM) of 0.463 and a relative viability (NCI-H2023; first compound 0.01581 µM) of 0.253. For the same molecule, the relative viability (NCI-H2023; first compound 0.05 µM) was 0.169, the relative viability (NCI-H2023; first compound 0.1581 µM) was 0.104 and the relative viability (NCI-H2023; first compound 0.5 µM) was 0.0963. The relative viability (LCLC-97TM1; first compound 0.005 µM) was 0.191, the relative viability (LCLC-97TM1; first compound 0.01581 µM) was 0.159 and the relative viability (LCLC-97TM1; first compound 0.05 µM) was 0.173. For the same molecule, the relative viability (LCLC-97TM1; first compound 0.1581 µM) was 0.136, the relative viability (LCLC-97TM1; first compound 0.5 µM) was 0.135 and the relative viability (BEN; first compound 0.005 µM) was 1.08. The relative viability (BEN; first compound 0.01581 µM) was 0.897, the relative viability (BEN; first compound 0.05 µM) was 0.781 and the relative viability (BEN; first compound 0.1581 µM) was 0.553. It also gave a relative viability (BEN; first compound 0.5 µM) of 0.372, a relative viability (NCI-H1915; first compound 0.005 µM) of 0.438 and a relative viability (NCI-H1915; first compound 0.01581 µM) of 0.285. It also gave a relative viability (NCI-H1915; first compound 0.05 µM) of 0.251, a relative viability (NCI-H1915; first compound 0.1581 µM) of 0.211 and a relative viability (NCI-H1915; first compound 0.5 µM) of 0.18. For the same molecule, the relative viability (201T; first compound 0.005 µM) was 0.728, the relative viability (201T; first compound 0.01581 µM) was 0.724 and the relative viability (201T; first compound 0.05 µM) was 0.76. The relative viability (201T; first compound 0.1581 µM) was 0.709, the relative viability (201T; first compound 0.5 µM) was 0.694 and the relative viability (NCI-H441; first compound 0.005 µM) was 0.361. For the same molecule, the relative viability (NCI-H441; first compound 0.01581 µM) was 0.421, the relative viability (NCI-H441; first compound 0.05 µM) was 0.451 and the relative viability (NCI-H441; first compound 0.1581 µM) was 0.242. It also gave a relative viability (NCI-H441; first compound 0.5 µM) of 0.199, a relative viability (LC-2-ad; first compound 0.005 µM) of 0.896 and a relative viability (LC-2-ad; first compound 0.01581 µM) of 0.908. For the same molecule, the relative viability (LC-2-ad; first compound 0.05 µM) was 0.893, the relative viability (LC-2-ad; first compound 0.1581 µM) was 0.708 and the relative viability (LC-2-ad; first compound 0.5 µM) was 0.47. The relative viability (NCI-H1944; first compound 0.005 µM) was 0.36, the relative viability (NCI-H1944; first compound 0.01581 µM) was 0.287 and the relative viability (NCI-H1944; first compound 0.05 µM) was 0.3. For the same molecule, the relative viability (NCI-H1944; first compound 0.1581 µM) was 0.168, the relative viability (NCI-H1944; first compound 0.5 µM) was 0.169 and the relative viability (NCI-H460; first compound 0.005 µM) was 0.13. For the same molecule, the relative viability (NCI-H460; first compound 0.01581 µM) was 0.111, the relative viability (NCI-H460; first compound 0.05 µM) was 0.103 and the relative viability (NCI-H460; first compound 0.1581 µM) was 0.0544. For the same molecule, the relative viability (NCI-H460; first compound 0.5 µM) was 0.0417, the relative viability (NCI-H1651; first compound 0.005 µM) was 0.846 and the relative viability (NCI-H1651; first compound 0.01581 µM) was 0.858. It also gave a relative viability (NCI-H1651; first compound 0.05 µM) of 0.818, a relative viability (NCI-H1651; first compound 0.1581 µM) of 0.591 and a relative viability (NCI-H1651; first compound 0.5 µM) of 0.384. For the same molecule, the relative viability (PC-3 [JPC-3]; first compound 0.005 µM) was 0.705, the relative viability (PC-3 [JPC-3]; first compound 0.01581 µM) was 0.73 and the relative viability (PC-3 [JPC-3]; first compound 0.05 µM) was 0.589. For the same molecule, the relative viability (PC-3 [JPC-3]; first compound 0.1581 µM) was 0.423, the relative viability (PC-3 [JPC-3]; first compound 0.5 µM) was 0.498 and the relative viability (NCI-H661; first compound 0.005 µM) was 0.574. The relative viability (NCI-H661; first compound 0.01581 µM) was 0.571, the relative viability (NCI-H661; first compound 0.05 µM) was 0.582 and the relative viability (NCI-H661; first compound 0.1581 µM) was 0.435. For the same molecule, the relative viability (NCI-H661; first compound 0.5 µM) was 0.385, the relative viability (NCI-H727; first compound 0.005 µM) was 0.348 and the relative viability (NCI-H727; first compound 0.01581 µM) was 0.374. The relative viability (NCI-H727; first compound 0.05 µM) was 0.354, the relative viability (NCI-H727; first compound 0.1581 µM) was 0.336 and the relative viability (NCI-H727; first compound 0.5 µM) was 0.329.
